Measurements published in the supplement of paper PMC10307832.

Tests used:
Assay in all cases: relative viability (nuclei count vs DMSO), 5 days (fraction); higher = more cells survive
COR-L 105 = system: COR-L 105
Outline: (§1)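 Dosing by pin tool came one day after lung cancer cell lines were seeded in 1536-well plates, using either one drug or a fixed anchor-drug dose plus five library-drug doses (not always all listed) in √10 steps. After 5 days, nuclei were counted on 4× images. Relative viability is treated-well nuclei count divided by vehicle-well nuclei count, and values are medians of duplicate plates.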

LXF-289 = system: LXF-289
Outline: as §1

EMC-BAC-2 = system: EMC-BAC-2
Outline: as §1

NCI-H1666 = system: NCI-H1666
Outline: as §1

NCI-H1915 = system: NCI-H1915
Outline: as §1

HOP-62 = system: HOP-62
Outline: as §1

HCC-15 = system: HCC-15
Outline: as §1

UMC-11 = system: UMC-11
Outline: as §1

NCI-H358 = system: NCI-H358
Outline: as §1

NCI-H441 = system: NCI-H441
Outline: as §1

NCI-H1975 = system: NCI-H1975
Outline: as §1

ChaGo-K-1 = system: ChaGo-K-1
Outline: as §1

NCI-H3122 = system: NCI-H3122
Outline: as §1

CAL-12T = system: CAL-12T
Outline: as §1

NCI-H1993 = system: NCI-H1993
Outline: as §1

NCI-H522 = system: NCI-H522
Outline: as §1

NCI-H2085 = system: NCI-H2085
Outline: as §1

NCI-H1755 = system: NCI-H1755
Outline: as §1

HCC-78 = system: HCC-78
Outline: as §1

NCI-H322M = system: NCI-H322M
Outline: as §1

NCI-H2023 = system: NCI-H2023
Outline: as §1

EPLC-272H = system: EPLC-272H
Outline: as §1

NCI-H2126 = system: NCI-H2126
Outline: as §1

Clc1ccc(Nc2nnc(Cc3ccncc3)c3ccccc23)cc1 [Vatalanib] + CC(=O)Nc1cccc(-n2c(=O)n(C3CC3)c(=O)c3c(Nc4ccc(I)cc4F)n(C)c(=O)c(C)c32)c1 [Trametinib] (partner 0.02 µM)
relative viability (COR-L 105; first compound 0.04 µM): 0.451
relative viability (COR-L 105; first compound 0.1265 µM): 0.363
relative viability (COR-L 105; first compound 0.4 µM): 0.427
relative viability (COR-L 105; first compound 1.265 µM): 0.443
relative viability (COR-L 105; first compound 4 µM): 0.426
relative viability (LXF-289; first compound 0.04 µM): 0.688
relative viability (LXF-289; first compound 0.1265 µM): 0.647
relative viability (LXF-289; first compound 0.4 µM): 0.686
relative viability (LXF-289; first compound 1.265 µM): 0.668
relative viability (LXF-289; first compound 4 µM): 0.626
relative viability (EMC-BAC-2; first compound 0.04 µM): 0.902
relative viability (EMC-BAC-2; first compound 0.1265 µM): 0.879
relative viability (EMC-BAC-2; first compound 0.4 µM): 0.908
relative viability (EMC-BAC-2; first compound 4 µM): 0.944
relative viability (NCI-H1666; first compound 0.04 µM): 0.83
relative viability (NCI-H1666; first compound 0.1265 µM): 0.886
relative viability (NCI-H1666; first compound 0.4 µM): 0.88
relative viability (NCI-H1666; first compound 1.265 µM): 0.912
relative viability (NCI-H1666; first compound 4 µM): 0.782
relative viability (NCI-H1915; first compound 0.04 µM): 0.32
relative viability (NCI-H1915; first compound 0.1265 µM): 0.34
relative viability (NCI-H1915; first compound 0.4 µM): 0.323
relative viability (NCI-H1915; first compound 1.265 µM): 0.298
relative viability (NCI-H1915; first compound 4 µM): 0.295
relative viability (HOP-62; first compound 0.04 µM): 0.388
relative viability (HOP-62; first compound 0.1265 µM): 0.382
relative viability (HOP-62; first compound 0.4 µM): 0.42
relative viability (HOP-62; first compound 1.265 µM): 0.367
relative viability (HOP-62; first compound 4 µM): 0.355
relative viability (HCC-15; first compound 0.04 µM): 0.392
relative viability (HCC-15; first compound 0.1265 µM): 0.412
relative viability (HCC-15; first compound 0.4 µM): 0.404
relative viability (HCC-15; first compound 1.265 µM): 0.365
relative viability (HCC-15; first compound 4 µM): 0.365
relative viability (UMC-11; first compound 0.04 µM): 0.761
relative viability (UMC-11; first compound 0.1265 µM): 0.769
relative viability (UMC-11; first compound 0.4 µM): 0.418
relative viability (UMC-11; first compound 1.265 µM): 0.688
relative viability (UMC-11; first compound 4 µM): 0.847
relative viability (NCI-H358; first compound 0.04 µM): 0.156
relative viability (NCI-H358; first compound 0.1265 µM): 0.122
relative viability (NCI-H358; first compound 0.4 µM): 0.151
relative viability (NCI-H358; first compound 1.265 µM): 0.13
relative viability (NCI-H358; first compound 4 µM): 0.138
relative viability (NCI-H441; first compound 0.04 µM): 0.435
relative viability (NCI-H441; first compound 0.1265 µM): 0.366
relative viability (NCI-H441; first compound 0.4 µM): 0.476
relative viability (NCI-H441; first compound 1.265 µM): 0.411
relative viability (NCI-H441; first compound 4 µM): 0.421
relative viability (NCI-H1975; first compound 0.04 µM): 0.317
relative viability (NCI-H1975; first compound 0.1265 µM): 0.345
relative viability (NCI-H1975; first compound 0.4 µM): 0.434
relative viability (NCI-H1975; first compound 1.265 µM): 0.315
relative viability (NCI-H1975; first compound 4 µM): 0.361
relative viability (ChaGo-K-1; first compound 0.04 µM): 0.86
relative viability (ChaGo-K-1; first compound 0.1265 µM): 0.823
relative viability (ChaGo-K-1; first compound 0.4 µM): 0.928
relative viability (ChaGo-K-1; first compound 1.265 µM): 0.877
relative viability (ChaGo-K-1; first compound 4 µM): 0.881
relative viability (NCI-H3122; first compound 0.04 µM): 0.239
relative viability (NCI-H3122; first compound 0.1265 µM): 0.229
relative viability (NCI-H3122; first compound 0.4 µM): 0.238
relative viability (NCI-H3122; first compound 1.265 µM): 0.244
relative viability (NCI-H3122; first compound 4 µM): 0.212
relative viability (CAL-12T; first compound 0.04 µM): 0.366
relative viability (CAL-12T; first compound 0.1265 µM): 0.296
relative viability (CAL-12T; first compound 0.4 µM): 0.368
relative viability (CAL-12T; first compound 1.265 µM): 0.366
relative viability (CAL-12T; first compound 4 µM): 0.298
relative viability (NCI-H1993; first compound 0.04 µM): 0.539
relative viability (NCI-H1993; first compound 0.1265 µM): 0.452
relative viability (NCI-H1993; first compound 0.4 µM): 0.54
relative viability (NCI-H1993; first compound 1.265 µM): 0.459
relative viability (NCI-H1993; first compound 4 µM): 0.49
relative viability (NCI-H522; first compound 0.04 µM): 0.73
relative viability (NCI-H522; first compound 0.1265 µM): 0.714
relative viability (NCI-H522; first compound 0.4 µM): 0.714
relative viability (NCI-H522; first compound 1.265 µM): 0.754
relative viability (NCI-H522; first compound 4 µM): 0.882
relative viability (NCI-H2085; first compound 0.04 µM): 0.516
relative viability (NCI-H2085; first compound 0.1265 µM): 0.384
relative viability (NCI-H2085; first compound 0.4 µM): 0.645
relative viability (NCI-H2085; first compound 1.265 µM): 0.484
relative viability (NCI-H2085; first compound 4 µM): 0.735
relative viability (NCI-H1755; first compound 0.04 µM): 0.734
relative viability (NCI-H1755; first compound 0.1265 µM): 0.812
relative viability (NCI-H1755; first compound 0.4 µM): 0.753
relative viability (NCI-H1755; first compound 1.265 µM): 0.788
relative viability (NCI-H1755; first compound 4 µM): 0.717
relative viability (HCC-78; first compound 0.04 µM): 0.729
relative viability (HCC-78; first compound 0.1265 µM): 0.794
relative viability (HCC-78; first compound 0.4 µM): 0.809
relative viability (HCC-78; first compound 1.265 µM): 0.822
relative viability (HCC-78; first compound 4 µM): 0.694
relative viability (NCI-H322M; first compound 0.04 µM): 0.416
relative viability (NCI-H322M; first compound 0.1265 µM): 0.51
relative viability (NCI-H322M; first compound 0.4 µM): 0.552
relative viability (NCI-H322M; first compound 4 µM): 0.517
relative viability (NCI-H2023; first compound 0.04 µM): 0.5
relative viability (NCI-H2023; first compound 0.1265 µM): 0.529
relative viability (NCI-H2023; first compound 0.4 µM): 0.477
relative viability (NCI-H2023; first compound 1.265 µM): 0.503
relative viability (NCI-H2023; first compound 4 µM): 0.517
relative viability (EPLC-272H; first compound 0.04 µM): 0.284
relative viability (EPLC-272H; first compound 0.1265 µM): 0.247
relative viability (EPLC-272H; first compound 0.4 µM): 0.327
relative viability (EPLC-272H; first compound 1.265 µM): 0.264
relative viability (EPLC-272H; first compound 4 µM): 0.268
relative viability (NCI-H2126; first compound 0.04 µM): 0.539
relative viability (NCI-H2126; first compound 0.1265 µM): 0.612
relative viability (NCI-H2126; first compound 0.4 µM): 0.591
relative viability (NCI-H2126; first compound 1.265 µM): 0.528
relative viability (NCI-H2126; first compound 4 µM): 0.536
